Measurements as given in patent US20200016118A1, “HDAC INHIBITOR IN COMBINATION WITH VEGF/VEGFR INTERACTION FOR CANCER THERAPY BASED ON PLATELET COUNT” (4SC AG, priority 2017, published 2020).

Test system: advanced HCC
Test: Phase I/II trial (Phase II part) of resminostat in combination with sorafenib versus sorafenib alone, first-line, overall survival by baseline platelet count
Assay type: in vivo, human
Experimental: A Phase I/II trial investigating resminostat in the indication of hepatocellular cancer (HCC) was conducted. The study was an open-label, multi-center Phase I/II study in patients with advanced HCC previously untreated with systemic chemotherapy (first-line therapy) to determine the MTD and to evaluate safety and efficacy of resminostat in combination with sorafenib. The study was conducted in Japan and Korea. The main eligibility criteria included a performance status of ECOG 0-1, adequate hepatic, renal, cardiac and bone marrow function and a life expectancy of more than 12 weeks.
In the Phase II part, a total of 170 patients were enrolled. Patients were randomly allocated to either the combination group (86 patients) or the monotherapy group (84 patients) at the RD determined from phase I. Randomization was performed with the minimization method using the following 2 factors as stratification factors: study site; and vascular invasion (presence or absence). The trial is registered at www.clinicaltrials.jp (Identifier: JapicCTI-132124) and www.clinicalTrials.gov (NCT02400788). Overall Survival (OS) were evaluated by the Kaplan-Meier method. A point estimate of the hazard ratio was calculated for each subgroup categorized by baseline platelet level as well as the 95% confidence interval of the estimate.
Treatment regimen: Mono group: A cycle was defined as 14 days. Sorafenib (800 mg) was given daily. Combination group: A cycle was defined as 14 days. Sorafenib (800 mg) was given daily. Resminostat (400 mg) was given daily on Days 1 to 5 and suspended on Days 6 to 14.
Blood was collected into a blood collection tubes precharged with EDTA-2K and then immediately inverted 4-5 times to mix. The mixed sample was stored refrigerated for further analysis.
Platelet count analysis was conducted with the Sheath Flow DC Detection method (Sysmex, Kobe, Japan). A method is described in detail in WALTERS J., GARRITY P. (2000): Performance Evaluation of the Sysmex XE-2100 Hematology Analyzer; Laboratory Hematology 6: 83-92. […]

For `CNC(=O)c1cc(Oc2ccc(NC(=O)Nc3ccc(Cl)c(C(F)(F)F)c3)cc2)ccn1` [sorafenib, 4-[4-[[4-chloro-3-(trifluoromethyl)phenyl]carbamoylamino]phenoxy]-N-methyl-pyridine-2-carboxamide], the “overall survival (OS), in words” value (patients with platelet count of about 150000 platelets/μL or above compared to below about 150000 (FIG. 1)) was “shorter overall survival”, the “median overall survival (mOS)” value (patients with platelet count ≥151×10^3/μL (median) at baseline) was 5.1 months and the “median overall survival (mOS)” value (patients with platelet level below median (<151×10^3/μL)) was 17.5 months.
